Assay [1] has as its target T1, Melanocyte-stimulating hormone receptor (Homo sapiens, UniProt Q01726). In words: Displacement of [125I]-NDP-alpha-MSH from human MC1R expressed in HEK293 cells after 40 mins by gamma counting method. Type of assay: cell-based. A general note: In a radioligand displacement assay an active substance lowers the binding of a labelled ligand.
Target sequence in this assay (Q01726 whole entry): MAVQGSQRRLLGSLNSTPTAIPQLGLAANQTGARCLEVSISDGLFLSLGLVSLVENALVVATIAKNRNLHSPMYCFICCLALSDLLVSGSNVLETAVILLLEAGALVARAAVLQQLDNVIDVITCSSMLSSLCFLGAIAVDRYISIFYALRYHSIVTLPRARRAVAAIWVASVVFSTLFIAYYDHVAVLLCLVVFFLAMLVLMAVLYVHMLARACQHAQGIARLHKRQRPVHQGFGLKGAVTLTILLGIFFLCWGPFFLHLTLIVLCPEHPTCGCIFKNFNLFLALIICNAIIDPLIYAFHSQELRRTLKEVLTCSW
In assay [2] the target is T1, Melanocyte-stimulating hormone receptor. Kind of assay: Agonist activity at human MC1R expressed in HEK293 cells assessed as induction of intracellular cAMP accumulation measured after 3 mins. Type of assay: functional, cell-based. In general terms: Cyclic AMP is a second messenger, typically raised through Gs and lowered through Gi signalling.
Target sequence in this assay (Q01726 whole entry): as above
Assay [3] addresses T2, Melanocortin receptor 3 (Homo sapiens, UniProt P41968). In words: Displacement of [125I]-NDP-alpha-MSH from human MC3R expressed in HEK293 cells after 40 mins by gamma counting method. The assay is classed as cell-based.
The target of assay [4] is T2, Melanocortin receptor 3. Kind of assay: Agonist activity at human MC3R expressed in HEK293 cells assessed as induction of intracellular cAMP accumulation after 3 mins. Type of assay: functional, cell-based.
The target of assay [5] is T2, Melanocortin receptor 3. In words: Agonist activity at human MC3R expressed in HEK293 cells assessed as induction of intracellular cAMP accumulation at 10 uM after 3 mins relative to MT-2. Type of assay: functional, cell-based.
Assay [6] addresses T3, Melanocortin receptor 4 (Homo sapiens, UniProt P32245). Kind of assay: Displacement of [125I]-NDP-alpha-MSH from human MC4R expressed in HEK293 cells after 40 mins by gamma counting method. The assay is classed as cell-based.
In assay [7] the target is T3, Melanocortin receptor 4. Kind of assay: Agonist activity at human MC4R expressed in HEK293 cells assessed as induction of intracellular cAMP accumulation after 3 mins. The assay is classed as functional, cell-based.
Assay [8] addresses T3, Melanocortin receptor 4. Kind of assay: Agonist activity at human MC4R expressed in HEK293 cells assessed as induction of intracellular cAMP accumulation at 10 uM after 3 mins relative to MT-2. The assay is classed as functional, cell-based.
In assay [9] the target is T4, Melanocortin receptor 5 (Homo sapiens, UniProt P33032). Kind of assay: Displacement of [125I]-NDP-alpha-MSH from human MC5R expressed in HEK293 cells after 40 mins by gamma counting method. Type of assay: cell-based.
Assay [10] concerns the target T4, Melanocortin receptor 5. Kind of assay: Agonist activity at human MC5R expressed in HEK293 cells assessed as induction of intracellular cAMP accumulation after 3 mins. Type of assay: functional, cell-based.
The target of assay [11] is T4, Melanocortin receptor 5. Kind of assay: Agonist activity at human MC5R expressed in HEK293 cells assessed as induction of intracellular cAMP accumulation at 10 uM after 3 mins relative to MT-2. The assay is classed as functional, cell-based.
Assay [12] deals with T1, Melanocyte-stimulating hormone receptor. In words: Agonist activity at human MC1R expressed in HEK293 cells assessed as induction of intracellular cAMP accumulation at 10 uM measured after 3 mins relative to MT-2. Type of assay: functional, cell-based.
Target sequence in this assay (Q01726 whole entry, looked up): as the sequence (Q01726 whole entry) above
Assay [13] is filed under the species Homo sapiens. In words: Selectivity ratio of IC50 for human MC1R to IC50 for human MC3R.
The species entered for assay [14] is Homo sapiens. In words: Selectivity ratio of IC50 for human MC5R to IC50 for human MC3R.

The results in this text go back to ChEMBL document CHEMBL4177763, “Development of Macrocyclic Peptidomimetics Containing Constrained α,α-Dialkylated Amino Acids with Potent and Selective Activity at Human Melanocortin Receptors” (J Med Chem, 2018).

Bridge positions count the residues as written; N and C are the ends. Square brackets hold non-standard residues; d marks the D form. Peptide text beside a SMILES is read from it. d2Nal = N[C@H](Cc1ccc2ccccc2c1)C(=O)O; Ac4c = NC1(C(=O)O)CCC1

T2 sequence (P41968 whole entry): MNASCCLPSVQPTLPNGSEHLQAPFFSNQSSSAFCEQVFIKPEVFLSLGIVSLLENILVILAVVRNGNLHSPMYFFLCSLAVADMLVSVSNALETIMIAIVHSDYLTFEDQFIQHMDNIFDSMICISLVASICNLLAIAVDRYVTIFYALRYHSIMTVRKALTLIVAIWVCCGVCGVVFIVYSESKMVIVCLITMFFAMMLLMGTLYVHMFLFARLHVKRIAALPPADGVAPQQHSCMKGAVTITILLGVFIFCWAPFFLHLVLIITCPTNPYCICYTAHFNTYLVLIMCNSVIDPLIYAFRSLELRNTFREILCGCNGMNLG
T4 sequence (P33032 whole entry): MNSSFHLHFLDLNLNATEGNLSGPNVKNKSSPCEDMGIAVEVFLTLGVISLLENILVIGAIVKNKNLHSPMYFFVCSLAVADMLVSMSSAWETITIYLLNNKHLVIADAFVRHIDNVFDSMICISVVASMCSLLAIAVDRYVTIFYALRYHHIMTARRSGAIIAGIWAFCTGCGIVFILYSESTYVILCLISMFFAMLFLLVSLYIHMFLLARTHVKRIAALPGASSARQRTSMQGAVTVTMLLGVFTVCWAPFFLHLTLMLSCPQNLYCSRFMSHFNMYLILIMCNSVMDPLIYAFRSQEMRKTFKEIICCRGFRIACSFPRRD
T3 sequence (P32245 whole entry): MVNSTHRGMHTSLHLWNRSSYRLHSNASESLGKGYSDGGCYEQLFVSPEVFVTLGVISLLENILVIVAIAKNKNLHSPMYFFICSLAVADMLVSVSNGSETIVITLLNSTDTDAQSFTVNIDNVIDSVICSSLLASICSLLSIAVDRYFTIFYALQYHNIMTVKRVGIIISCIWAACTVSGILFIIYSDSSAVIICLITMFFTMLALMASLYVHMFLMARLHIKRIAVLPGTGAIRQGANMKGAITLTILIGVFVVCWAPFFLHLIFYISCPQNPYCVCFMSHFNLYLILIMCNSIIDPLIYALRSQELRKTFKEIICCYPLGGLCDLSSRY

In general, IC50 refers to the concentration at which inhibition is half-maximal. A lower IC50 goes with greater potency in that assay. In general, EC50 refers to the concentration needed to bring the measured effect to its halfway point. In the case of `N=C(N)NCCC[C@@H]1NC(=O)[C@@H](Cc2ccccc2)NC(=O)[C@H](Cc2c[nH]cn2)NC(=O)C2(CCCCC2)NC(=O)CC[C@@H](C(N)=O)NC(=O)[C@H](Cc2c[nH]c3ccccc23)NC1=O`, the IC50 in assay [1] is 99 nM; in assay [3] it was 74 nM; in assay [6], more than 1000 nM; in assay [9], 630 nM. Moreover, the EC50 in assay [2] came to 57 nM; in assay [4] (read-out: EC50), 4.1 nM; in assay [7] (read-out: EC50), 120 nM; in assay [10] (read-out: EC50), 1.9 nM. Further, the max activation in assay [5], in assay [8], in assay [11] and in [12] was 100% each time.

On to `N=C(N)NCCC[C@@H]1NC(=O)[C@@H](Cc2ccc3ccccc3c2)NC(=O)[C@H](Cc2c[nH]cn2)NC(=O)C2(CCCCC2)NC(=O)C[C@@H](C(N)=O)NC(=O)[C@H](Cc2c[nH]c3ccccc23)NC1=O`, for which the IC50 in assay [1] is 140 nM; in assay [3] it was 3.9 nM; in assay [6], 81 nM; in assay [9], more than 1000 nM. For the same compound, the EC50 in [2] was determined as 16 nM; in assay [4] (read-out: EC50), 76 nM; in assay [7] (read-out: EC50) it was 3.2 nM; in assay [10] (read-out: EC50), 170 nM. Moreover, the max activation was determined as 60% in assay [5], 67% in assay [8], 100% in assay [11] and 100% in [12].

In the case of `N=C(N)NCCC[C@@H]1NC(=O)[C@@H](Cc2ccc3ccccc3c2)NC(=O)[C@H](Cc2c[nH]cn2)NC(=O)C2(CCC2)NC(=O)C[C@@H](C(N)=O)NC(=O)[C@H](Cc2c[nH]c3ccccc23)NC1=O`, the IC50 in assay [1] is 112 nM; in assay [3], 5.1 nM; in [6], 320 nM; in [9], more than 1000 nM. The EC50 worked out at 48 nM in assay [2], 3.2 nM in [4] (read-out: EC50), 270 nM in assay [7] (read-out: EC50) and 560 nM in assay [10] (read-out: EC50). Further, the max activation in [5] was found to be 50%; in assay [8] it was 70%; in [11], 100%; in assay [12] it was 100%.

`N=C(N)NCCC[C@@H]1NC(=O)[C@@H](Cc2ccc3ccccc3c2)NC(=O)[C@H](Cc2c[nH]cn2)NC(=O)C2(CCCC2)NC(=O)C[C@@H](C(N)=O)NC(=O)[C@H](Cc2c[nH]c3ccccc23)NC1=O`: the IC50 stood at 290 nM in [1], 16 nM in assay [3], 73 nM in assay [6] and 160 nM in assay [9]. Besides, the EC50 turned out to be 14 nM in assay [2], 1.9 nM in [4] (read-out: EC50), 110 nM in [7] (read-out: EC50) and 96 nM in [10] (read-out: EC50). The max activation in [5] was found to be 42%; in assay [8] it was 67%; in [11], 100%; in assay [12] it was 100%.

In the case of `N=C(N)NCCC[C@@H]1NC(=O)[C@@H](Cc2ccccc2)NC(=O)[C@H](Cc2c[nH]cn2)NC(=O)C2(CCC2)NC(=O)C[C@@H](C(N)=O)NC(=O)[C@H](Cc2c[nH]c3ccccc23)NC1=O`, the half-maximal inhibitory concentration (IC50) in assay [1], in [3], in assay [6] and in assay [9] was more than 1000 nM in each case. Also, the concentration for a half-maximal effect (EC50) was 60 nM in assay [2], 276 nM in assay [4] (read-out: EC50), 720 nM in assay [7] (read-out: EC50) and “Not Active” in [10] (hek293). Further, the max activation in [5] stood at 100%; in assay [8], 43%; in [11], 0%; in assay [12] it was 100%.

For the compound `N=C(N)NCCC[C@@H]1NC(=O)[C@@H](Cc2ccc3ccccc3c2)NC(=O)[C@H](Cc2c[nH]cn2)NC(=O)C2(CCC2)NC(=O)CC[C@@H](C(N)=O)NC(=O)[C@H](Cc2c[nH]c3ccccc23)NC1=O` ([Ac4c]H[d2Nal]RWE-NH2; lactam N-6), the EC50 entry in assay [4] (hek293), in assay [7] (hek293) and in assay [10] (hek293) was “Not Active” in each case.

Regarding `N=C(N)NCCC[C@@H]1NC(=O)[C@@H](Cc2ccccc2)NC(=O)[C@H](Cc2c[nH]cn2)NC(=O)C2(CCC2)NC(=O)CC[C@@H](C(N)=O)NC(=O)[C@H](Cc2c[nH]c3ccccc23)NC1=O` ([Ac4c]H[dF]RWE-NH2; lactam N-6), the Ratio IC50 in [13] worked out at 7; in assay [14] it was 1. Further, the IC50 in [1] was 55 nM; in [3] it was 55 nM; in assay [6], more than 1000 nM; in assay [9] it was 380 nM. The EC50 came to 25 nM in [2], 150 nM in [7] (read-out: EC50) and 2 nM in assay [10] (read-out: EC50). Further, the max activation in assay [5] worked out at 100%; in [8], 75%; in assay [11], 100%; in assay [12], 100%.
